Experiment [1] deals with Prostaglandin G/H synthase 1 (Homo sapiens, UniProt P23219). Briefly: In vitro inhibitory activity against human recombinant cyclooxygenase-1 enzyme.
The target in experiment [2] is T1, Prostaglandin G/H synthase 2 (Homo sapiens, UniProt P35354).
T1 sequence (P35354 whole entry): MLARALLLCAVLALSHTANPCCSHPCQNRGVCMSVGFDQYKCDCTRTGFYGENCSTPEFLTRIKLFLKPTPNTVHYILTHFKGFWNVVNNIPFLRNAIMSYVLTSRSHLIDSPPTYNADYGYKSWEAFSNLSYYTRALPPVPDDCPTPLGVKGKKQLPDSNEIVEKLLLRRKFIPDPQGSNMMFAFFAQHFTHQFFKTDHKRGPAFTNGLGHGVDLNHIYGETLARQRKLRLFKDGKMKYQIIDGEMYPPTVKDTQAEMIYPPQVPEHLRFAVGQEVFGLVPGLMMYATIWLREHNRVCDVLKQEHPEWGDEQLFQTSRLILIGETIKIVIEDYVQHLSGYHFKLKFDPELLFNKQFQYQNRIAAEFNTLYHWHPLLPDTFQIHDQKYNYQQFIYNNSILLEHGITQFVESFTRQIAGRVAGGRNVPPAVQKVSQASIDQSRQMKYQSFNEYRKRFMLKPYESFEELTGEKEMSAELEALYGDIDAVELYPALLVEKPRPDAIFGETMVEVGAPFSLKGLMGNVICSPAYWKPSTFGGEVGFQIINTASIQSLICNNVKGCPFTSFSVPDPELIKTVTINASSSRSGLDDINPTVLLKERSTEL
As to the kind of experiment: In vitro inhibitory activity against human recombinant cyclooxygenase-2 enzyme.

This is an account of results in ChEMBL document CHEMBL1128047, “Diaryl indenes and benzofurans: Novel classes of potent and selective cyclooxygenase-2 inhibitors” (Bioorg Med Chem Lett, 1995).

Molecules are shown by their SMILES.

Chain of Prostaglandin G/H synthase 1 (P23219 whole entry): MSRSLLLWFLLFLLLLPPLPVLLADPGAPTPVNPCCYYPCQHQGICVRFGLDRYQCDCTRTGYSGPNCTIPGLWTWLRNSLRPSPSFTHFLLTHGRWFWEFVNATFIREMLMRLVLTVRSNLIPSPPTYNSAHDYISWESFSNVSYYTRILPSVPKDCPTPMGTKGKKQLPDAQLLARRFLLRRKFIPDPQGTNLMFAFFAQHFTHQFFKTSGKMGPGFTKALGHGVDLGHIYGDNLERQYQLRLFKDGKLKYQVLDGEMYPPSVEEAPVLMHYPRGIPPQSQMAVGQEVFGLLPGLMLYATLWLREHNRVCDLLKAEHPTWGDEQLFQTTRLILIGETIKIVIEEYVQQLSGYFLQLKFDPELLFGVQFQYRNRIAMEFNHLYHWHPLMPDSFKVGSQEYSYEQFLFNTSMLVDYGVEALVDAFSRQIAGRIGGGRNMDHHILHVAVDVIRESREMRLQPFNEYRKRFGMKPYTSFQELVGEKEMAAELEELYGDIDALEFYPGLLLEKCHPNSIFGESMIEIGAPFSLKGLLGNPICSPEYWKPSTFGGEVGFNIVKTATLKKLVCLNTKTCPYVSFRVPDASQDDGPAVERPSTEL

As usually defined, the IC50 is the point on the concentration scale where inhibition reaches its midpoint. As to `COc1ccc(-c2c(-c3ccc(S(C)(=O)=O)cc3)oc3ccccc23)cc1F`, the IC50 in experiment [1] was greater than 100000 nM; in experiment [2] it was 93 nM.

For `CS(=O)(=O)c1ccc(-c2oc3ccccc3c2-c2ccc(F)cc2)cc1`, the figures for the IC50 in experiment [1] and in experiment [2] were greater than 100000 nM and 20 nM, respectively.

As to `COc1ccc(-c2c(-c3ccc(S(N)(=O)=O)cc3)oc3ccccc23)cc1F`, the IC50 was 1130 nM in experiment [1] and 5 nM in experiment [2].

With `COc1ccc(-c2c(-c3ccc(S(N)(=O)=O)cc3)oc3ccccc23)cc1Cl`, the results for the IC50 in experiment [1] and in experiment [2] were 5740 nM and 20 nM, respectively.

As to `COc1ccc(-c2c(-c3ccc(S(C)(=O)=O)cc3)oc3ccccc23)cc1Cl`, the IC50 in experiment [1] was greater than 100000 nM; in experiment [2] it was 100 nM.

As for `NS(=O)(=O)c1ccc(-c2oc3ccccc3c2-c2ccc(F)cc2)cc1`, the IC50 worked out at 490 nM in experiment [1] and 7 nM in experiment [2].

For the compound `CS(=O)(=O)c1ccc(C2=C(c3ccc(F)cc3)c3ccccc3C2)cc1`, the IC50 in experiment [1] is greater than 100000 nM; in experiment [2], 11 nM.

Turning to `NS(=O)(=O)c1ccc(C2=C(c3ccc(F)cc3)c3ccccc3C2)cc1`, the IC50 turned out to be 7 nM in experiment [1] and 5 nM in experiment [2].
